For 16 molecules, EC50 and Emax results are on record in patent US9834542B2, “LXR modulators” (BRISTOL-MYERS SQUIBB COMPANY, priority 2013, dated 2017).

The assay has as its target T1, LXRβ (Homo sapiens, UniProt P55055).
T1 construct: Co-transfection expression plasmids, comprising full-length LXRα (pCMX-h LXRα[…] or LXRβ (pCMX-hLXRβ)); expressed in transfected cells; host or cells: CV-1 African Green Monkey Kidney Cells
T1 sequence (P55055 1-460): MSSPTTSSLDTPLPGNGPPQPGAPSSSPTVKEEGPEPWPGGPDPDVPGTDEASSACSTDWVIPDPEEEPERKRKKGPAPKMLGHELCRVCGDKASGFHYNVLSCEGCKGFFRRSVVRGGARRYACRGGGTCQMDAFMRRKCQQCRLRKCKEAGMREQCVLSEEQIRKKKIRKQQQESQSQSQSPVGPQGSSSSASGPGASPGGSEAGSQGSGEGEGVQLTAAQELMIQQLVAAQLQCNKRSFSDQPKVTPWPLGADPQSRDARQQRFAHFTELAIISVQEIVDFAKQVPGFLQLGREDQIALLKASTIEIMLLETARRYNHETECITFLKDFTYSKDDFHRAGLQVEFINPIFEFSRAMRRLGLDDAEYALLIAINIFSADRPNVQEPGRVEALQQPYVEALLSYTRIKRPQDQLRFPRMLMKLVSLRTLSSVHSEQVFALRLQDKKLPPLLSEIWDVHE
T1 sequence (P19793 1-462 partner): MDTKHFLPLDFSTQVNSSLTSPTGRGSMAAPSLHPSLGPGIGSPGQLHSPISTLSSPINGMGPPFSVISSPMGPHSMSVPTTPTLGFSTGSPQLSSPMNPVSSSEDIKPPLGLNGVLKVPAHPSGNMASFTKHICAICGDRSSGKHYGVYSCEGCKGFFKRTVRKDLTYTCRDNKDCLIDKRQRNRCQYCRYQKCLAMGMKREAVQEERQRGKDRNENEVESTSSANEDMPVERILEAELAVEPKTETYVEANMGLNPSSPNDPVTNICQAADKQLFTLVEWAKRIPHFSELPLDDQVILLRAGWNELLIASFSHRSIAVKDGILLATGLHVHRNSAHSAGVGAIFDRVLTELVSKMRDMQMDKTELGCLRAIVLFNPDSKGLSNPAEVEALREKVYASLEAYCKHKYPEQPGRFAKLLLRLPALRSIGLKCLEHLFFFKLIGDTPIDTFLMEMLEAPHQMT
As to the kind of experiment: Co-transfection assay (LXRE luciferase reporter), LXRβ. The format is cell-based. The settings on record: for EC50: CV-1 cells transfected with pCMX-hLXRβ and LXREx1-Tk-Luciferase, 20 hours incubation; for Emax: LXRβ co-transfection, relative to high control 1-(2,4-difluorobenzyl)-2-oxo-6-(4-phenoxyphenyl)-4-(trifluoromethyl)-1,2-dihydropyridine-3-carbonitrile, read-out: % Efficacy. Summed up:
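Luciferase signal from an LXREx1-Tk reporter was measured after transfected CV-1 cells (full-length hLXRβ, endogenous RXR) were treated with compounds for 20 h at 37 °C, ≤0.5% DMSO. EC50 came from four-parameter fits of 11-point ½-log curves; % efficacy versus a reference agonist maximum.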

With `Cc1nc(C(F)(F)F)cn1-c1ccc(-c2cc(F)c(CO)c(S(C)(=O)=O)c2)cc1-c1ccnn1-c1ccc(Cl)nc1` [Example 297, (3′-(1-(6-chloropyridin-3-yl)-1H-pyrazol-5-yl)-3-fluoro-4′-(2-methyl-4-(trifluoromethyl)-1H-imidazol-1-yl)-5-(methylsulfonyl)biphenyl-4-yl)methanol], a half-maximal effect (EC50) was put at 0.351 µM and the Emax is 75%.
In the same order, the values of `Cc1nc(C(F)(F)F)cn1-c1ccc(-c2ccc(CO)c(S(C)(=O)=O)c2)cc1-c1ccnn1-c1ccc(Cl)nc1` [Example 298, (3′-(1-(6-chloropyridin-3-yl)-1H-pyrazol-5-yl)-4′-(2-methyl-4-(trifluoromethyl)-1H-imidazol-1-yl)-3-(methylsulfonyl)biphenyl-4-yl)methanol] are 0.317 µM and 71%.
The matching figures for `Cc1cc(-c2cc(-c3cc(F)c(CO)c(S(C)(=O)=O)c3)ccc2-n2cc(C(F)(F)F)nc2C)n(-c2ccc3c(c2)OC(F)(F)O3)n1` [Example 299, (3′-(1-(2,2-difluorobenzo[d][1,3]dioxol-5-yl)-3-methyl-1H-pyrazol-5-yl)-3-fluoro-4′-(2-methyl-4-(trifluoromethyl)-1H-imidazol-1-yl)-5-(methylsulfonyl)biphenyl-4-yl)methanol]: 0.017 µM and 77%.
On to `Cc1cc(-c2cc(-c3ccc(CO)c(S(C)(=O)=O)c3)ccc2-n2cc(C(F)(F)F)nc2C)n(-c2ccc3c(c2)OC(F)(F)O3)n1` [Example 300, (3′-(1-(2,2-difluorobenzo[d][1,3]dioxol-5-yl)-3-methyl-1H-pyrazol-5-yl)-4′-(2-methyl-4-(trifluoromethyl)-1H-imidazol-1-yl)-3-(methylsulfonyl)biphenyl-4-yl)methanol], for which the EC50 amounted to 0.012 µM and the Emax worked out at 61%.
The matching figures for `Cc1cc(-c2cc(-c3cccc(S(C)(=O)=O)c3)ccc2-n2cc(C(F)(F)F)nc2C)n(-c2ccc(OC(F)F)cc2)n1` [Example 301, 1-(4-(difluoromethoxy)phenyl)-3-methyl-5-(4-(2-methyl-4-(trifluoromethyl)-1H-imidazol-1-yl)-3′-(methylsulfonyl)biphenyl-3-yl)-1H-pyrazole]: 0.049 µM and 91%.
The matching figures for `Cc1cc(-c2cc(-c3ccc(CO)c(S(C)(=O)=O)c3)ccc2-n2cc(C(F)(F)F)nc2C)n(-c2ccc(OC(F)F)cc2)n1` [Example 302, (3′-(1-(4-(difluoromethoxy)phenyl)-3-methyl-1H-pyrazol-5-yl)-4′-(2-methyl-4-(trifluoromethyl)-1H-imidazol-1-yl)-3-(methylsulfonyl)-[1,1′-biphenyl]-4-yl)methanol]: 0.025 µM and 81%.
The matching figures for `Cc1cc(-c2cc(-c3cc(O)c(CF)c(S(C)(=O)=O)c3)ccc2-n2cc(C(F)(F)F)nc2C)n(-c2ccc(OC(F)(F)F)cc2)n1` [Example 303, 4-(fluoromethyl)-3′-(3-methyl-1-(4-(trifluoromethoxy)phenyl)-1H-pyrazol-5-yl)-4′-(2-methyl-4-(trifluoromethyl)-1H-imidazol-1-yl)-5-(methylsulfonyl)-[1,1′-biphenyl]-3-ol]: 0.021 µM and 68%.
Consider `Cc1cc(-c2cc(-c3cccc(S(C)(=O)=O)c3)ccc2-n2cc(C(F)(F)F)nc2C)n(-c2ccc3c(c2)OC(F)(F)O3)n1` [Example 304, 1-(2,2-difluorobenzo[d][1,3]dioxol-5-yl)-3-methyl-5-(4-(2-methyl-4-(trifluoromethyl)-1H-imidazol-1-yl)-3′-(methylsulfonyl)-[1,1′-biphenyl]-3-yl)-1H-pyrazole], for which the EC50 was determined as 0.028 µM and the Emax was found to be 100%.
For the molecule `Cc1nc(C(F)(F)F)cn1-c1ccc(-c2cccc(S(C)(=O)=O)c2)cc1-c1ncoc1-c1ccc(Cl)cc1` [Example 354, 5-(4-chlorophenyl)-4-{3′-(methylsulfonyl)-4-[2-methyl-4-(trifluoromethyl)-1H-imidazol-1-yl]biphenyl-3-yl}-1,3-oxazole], the 50% effective concentration (EC50) turned out to be 0.425 µM and the Emax is 77%.
The matching figures for `Cc1nc(C(F)(F)F)cn1-c1ccc(-c2cc(F)c(CO)c(S(C)(=O)=O)c2)cc1-c1ocnc1-c1ccc(Cl)cc1` [Example 355, {3′-[4-(4-chlorophenyl)-1,3-oxazol-5-yl]-3-fluoro-5-(methylsulfonyl)-4′-[2-methyl-4-(trifluoromethyl)-1H-imidazol-1-yl]biphenyl-4-yl}methanol]: 0.105 µM and 98%.
In the same order, the values of `Cc1nc(C(C)(F)F)cn1-c1ccc(-c2cc(F)c(CO)c(S(C)(=O)=O)c2)cc1-c1ocnc1-c1ccc(OC(F)(F)F)cc1` [Example 356, (4′-(4-(1,1-difluoroethyl)-2-methyl-1H-imidazol-1-yl)-3-fluoro-5-(methylsulfonyl)-3′-(4-(4-(trifluoromethoxy)phenyl)oxazol-5-yl)biphenyl-4-yl)methanol] are 0.599 µM and 79%.
In the same order, the values of `CNS(=O)(=O)c1cccc(-c2ccc(-n3cc(C(F)(F)F)nc3C)c(-c3ocnc3-c3ccc(OC(F)(F)F)cc3)c2)c1` [Example 357, N-methyl-4′-[2-methyl-4-(trifluoromethyl)-1H-imidazol-1-yl]-3′-(4-{4-[(trifluoromethyl)oxy]phenyl}-1,3-oxazol-5-yl)biphenyl-3-sulfonamide] are 0.106 µM and 98%.
As for `Cc1nc(C(F)(F)F)cn1-c1ccc(-c2cccc(S(=O)(=O)N(C)C)c2)cc1-c1ocnc1-c1ccc(OC(F)(F)F)cc1` [Example 358, N,N-dimethyl-4′-[2-methyl-4-(trifluoromethyl)-1H-imidazol-1-yl]-3′-(4-{4-[(trifluoromethyl)oxy]phenyl}-1,3-oxazol-5-yl)biphenyl-3-sulfonamide], the EC50 is 0.116 µM and the Emax worked out at 87%.
Regarding `Cc1nc(C(F)(F)F)cn1-c1ccc(-c2cc(F)c(CO)c(S(C)(=O)=O)c2)cc1-c1ocnc1-c1ccc(OC(F)(F)F)cc1` [Example 359, [3-fluoro-5-(methylsulfonyl)-4′-[2-methyl-4-(trifluoromethyl)-1H-imidazol-1-yl]-3′-(4-{4-[(trifluoromethyl)oxy]phenyl}-1,3-oxazol-5-yl)biphenyl-4-yl]methanol], the midpoint of the response, the EC50, lay at 0.138 µM and the Emax is 91%.
The matching figures for `Cc1nc(C(F)(F)F)cn1-c1ccc(-c2cccc(S(C)(=O)=O)c2)cc1-c1ocnc1-c1ccc(Cl)cc1` [Example 360, 4-(4-chlorophenyl)-5-{3′-(methylsulfonyl)-4-[2-methyl-4-(trifluoromethyl)-1H-imidazol-1-yl]biphenyl-3-yl}-1,3-oxazole]: 0.17 µM and 93%.
The matching figures for `Cc1nc(C(F)(F)F)cn1-c1ccc(-c2cccc(S(C)(=O)=O)c2)cc1-c1ocnc1-c1ccc(OC(F)(F)F)cc1` [Example 361, 5-{3′-(methylsulfonyl)-4-[2-methyl-4-(trifluoromethyl)-1H-imidazol-1-yl]biphenyl-3-yl}-4-{4-[(trifluoromethyl)oxy]phenyl}-1,3-oxazole]: 0.183 µM and 89%.
